Test system: Cell Necrosis
Test: Cell necrosis assay / cell viability assay (necrosis inhibitor activity)
Type: cell-based
Conditions: not given

SMILES | EC50
O=C(N1CCN(Cc2ccccc2)CC1)N1N=CCC1c1ccccc1 (centres unmarked) [Compound 97, (4-benzylpiperazin-1-yl)(5-phenyl-4,5-dihydro-1H-pyrazol-1-yl)methanone] | 1000 to 10000 nM

Same assay, conditions: necrosis inhibitor activity; EC data for 14-191 extrapolated; read-out: EC50

SMILES | EC50
O=C(N1CC(Oc2ccc3nc[nH]c3c2)C1)N1N=CCC1c1cc(F)cc(F)c1 (centres unmarked) [Compound 178] | 1 to 1000 nM
O=C(N1CCN(c2ccccc2)CC1)N1N=CCC1c1ccccc1 (centres unmarked) [Compound 91, (5-phenyl-4,5-dihydro-1H-pyrazol-1-yl)(4-phenylpiperazin-1-yl)methanone] | 1000 to 10000 nM
O=C(N1CC(=Cc2ccc(=O)[nH]c2)C1)N1N=CCC1c1cc(F)cc(F)c1 (centres unmarked) [Compound 187] | 1 to 1000 nM
C[C@H]1CN(c2ncc(F)cn2)CCN1C(=O)N1N=CCC1c1cccc(F)c1 (stereo partly drawn) [Compound 117A, ((S)-5-(3-fluorophenyl)-4,5-dihydro-H-pyrazol-1-yl)((S)-4-(5-fluoropyrimidin-2-yl)-2-methylpiperazin-1-yl)methanone] | 1 to 1000 nM
O=C(N1CC(Cc2ccc(F)cc2Cl)C1)N1N=CCC1c1ccccc1 (centres unmarked) [Compound 52, (3-(2-chloro-4-fluorobenzyl)azetidin-1-yl)(5-phenyl-4,5-dihydro-1H-pyrazol-1-yl)methanone] | 1 to 1000 nM
C[C@H]1CN(c2ncc(F)cn2)CCN1C(=O)N1OCC[C@H]1c1ccccc1 [Compound 109, ((S)-4-(5-fluoropyrimidin-2-yl)-2-methylpiperazin-1-yl)((S)-3-phenylisoxazolidin-2-yl)methanone] | 1 to 1000 nM
N#Cc1csc(OC2CN(C(=O)N3N=CCC3c3ccccc3)C2)n1 (centres unmarked) [Compound 121, 2-((1-(5-phenyl-4,5-dihydro-1H-pyrazole-1-carbonyl)azetidin-3-yl)oxy)thiazole-4-carbonitrile] | 1 to 1000 nM

Same assay, conditions: necrosis inhibitor activity; compounds outside 14-191; read-out: EC50

SMILES | EC50
O=C(N1CC(=Cc2cnc3cn[nH]c3c2)C1)N1N=CC[C@H]1c1cc(F)cc(F)c1 [Compound 315, (S)-(3-((1H-pyrazolo[4,3-b]pyridin-6-yl)methylene)azetidin-1-yl)(5-(3,5-difluorophenyl)-4,5-dihydro-1H-pyrazol-1-yl)methanone] | 1 to 1000 nM
N#Cc1cc(Cl)nc(O[C@H]2CCN(C(=O)N3N=CC[C@H]3c3cc(F)cc(F)c3)C2)c1 [Compound 330, 2-chloro-6-(((S)-1-((S)-5-(3,5-difluorophenyl)-4,5-dihydro-1H-pyrazole-1-carbonyl)pyrrolidin-3-yl)oxy)isonicotinonitrile] | 1 to 1000 nM
O=C(N1CC(=Cc2ccc(F)cc2F)C1)N1N=CCC1c1cncc(F)c1 (centres unmarked) [Compound 308, (3-(2,4-difluorobenzylidene)azetidin-1-yl)(5-(5-fluoropyridin-3-yl)-4,5-dihydro-1H-pyrazol-1-yl)methanone] | 1 to 1000 nM
O=C(N1CC[C@@H](Oc2cccc(NCCN3CCOCC3)n2)C1)N1N=CC[C@H]1c1cc(F)cc(F)c1 [Compound 358] | 1 to 1000 nM
NC(=O)CCNc1ncc(F)c(OC2CN(C(=O)N3N=CC[C@H]3c3cc(F)cc(F)c3)C2)n1 [Compound 270, (S)-3-((4-((1-(5-(3,5-difluorophenyl)-4,5-dihydro-1H-pyrazole-1-carbonyl)azetidin-3-yl)oxy)-5-fluoropyrimidin-2-yl)amino)propanamide] | 1 to 1000 nM
O=C(NC1CCCC1)N1N=CCC1c1ccccc1 (centres unmarked) [Compound 5, N-cyclopentyl-5-phenyl-4,5-dihydro-1H-pyrazole-1-carboxamide] | 1 to 1000 nM
CC1CCCC(NC(=O)N2N=CCC2c2ccccc2)C1 (centres unmarked) [Compound 11, N-(3-methylcyclohexyl)-5-phenyl-4,5-dihydro-1H-pyrazole-1-carboxamide] | 1 to 1000 nM
O=C(N1CC(Oc2ccc3cc[nH]c3c2)C1)N1N=CC[C@H]1c1cc(F)cc(F)c1 [Compound 223, (S)-(3-((1H-indol-6-yl)oxy)azetidin-1-yl)(5-(3,5-difluorophenyl)-4,5-dihydro-1H-pyrazol-1-yl)methanone] | 1 to 1000 nM
O=C(NC1CCC1)N1N=CCC1c1ccccc1 (centres unmarked) [Compound 2, N-cyclobutyl-5-phenyl-4,5-dihydro-1H-pyrazole-1-carboxamide] | 1 to 1000 nM

— patent publication US12662469B2 (SIRONAX LTD, priority 2018, dated 2026)
